The record followed here is US11898168B2, “Methods of promoting esophageal differentiation of pluripotent stem cells” (The Trustees of Columbia University in the City of New York, priority 2017, dated 2024).

Format in all cases: cell-based, human
For one test, the system named is NOTCH signaling. In words: Expression of NOTCH downstream targets in iPSC-derived EPCs. As to conditions: 10 μM. How it is done:
(§1) Cells were lysed with TRIzol (Invitrogen) and RNA was purified using the RNeasy Mini Kit (QIAGEN). RNA was reversely transcribed to cDNA by the SuperScript III First-Strand SuperMix (Invitrogen). cDNA was quantified by real-time PCR using the iQ SYBR Green Supermix (Bio-Rad) and StepOnePlus™ Real-Time PCR System (Applied Biosystems). The transcript level of each gene was normalized to the ß-actin control using 2(−ΔΔCT) method. Relative gene expression was calculated and reported as fold change compared to the indicated samples using ß-actin normalized transcript level. All qRT-PCR experiments were performed at least triplicate.
(§2) It was then tested whether NOTCH signaling is involved in the differentiation of hPSC-derived EPCs. The iPSC-derived EPCs were treated with 10 μM γ-secretase inhibitor DAPT to block NOTCH signaling. As expected, treatment with DAPT led to downregulation of HESS, HEY1 and HEY2, the downstream targets of NOTCH signaling (Kopan and Ilagan, 2009).

The test system of test [1] is hESC RUES2-derived AFE cells. In words: Specification of anterior foregut endoderm (AFE) towards esophageal progenitor cells, day 6-16, gene expression by qPCR/immunostaining. How it is done: hPSCs were differentiated into endodermal and anterior foregut using a previously described protocol (Huang et al., 2015; Huang et al., 2014). Serum-Free Differentiation (SFD) medium was prepared as follows: 750 ml of reconstituted IMDM (ThermoFisher Scientific), 250 ml of F-12 (Corning), 7.5 ml of BSA (ThermoFisher Scientific), 10 ml of Glutamax (ThermoFisher Scientific), 5 ml of N2 (ThermoFisher Scientific), 10 ml of B27 (ThermoFisher Scientific) and 10 ml of Penicillin/Streptomycin (ThermoFisher Scientific), and adding L-Ascorbic acid (Sigma-Aldrich) and MTG (Sigma-Aldrich) on the day of use to obtain a final concentration of 50 μg/ml and 0.04 μl/ml, respectively. To generate endoderm, hPSCs were detached by Accutase/EDTA and cultured in SFD medium plus 10 μM Rock inhibitor 100 ng/ml Activin A, Y-27632 (Tocris), 2.5 ng FGF2 and 0.5 ng/ml BMP4 (R&D Systems) in 6-well Ultra-Low-Attachment plates (Corning) for 72 hours (day 1-4). At day 4, anterior foregut progenitor cells were further induced by culturing endoderm in SFD medium plus 10 μM SB431542 (Tocris) and 100 ng/ml Noggin (R&D Systems) for 24 hours (day 4-5) and SFD medium plus 10 μM SB431542 and 1 μM IWP-2 (Tocris) for another 24 hours (day 5-6). Cells were maintained at 5% O2/95% N2/5% CO2 from day 1-6.
To induce esophageal progenitor cell differentiation, anterior foregut progenitor cells were cultured from day 6 to day 16 in SFD medium plus 10 μM SB431542 and 50 ng/ml Noggin. From day 16 to day 24, cells were maintained at SFD medium. A previously described protocol was followed to generate lung progenitor cells from AFE (Huang et al., 2015; Huang et al., 2014) in which AFE cells were cultured in 3 μM CHIR99021 (Tocris), 10 ng/ml human FGF10 (R&D Systems), 10 ng/ml human KGF (R&D Systems), 10 ng/ml human BMP4 and 50 nM retinoid acid (RA, Sigma). Cells were cultured at 5% O2/95% N2/5% CO2 at day 6-7 and maintained at 95% air/5% CO2 from day 7 onwards.
For immunofluorescence staining, cells were fixed in 4% paraformaldehyde (PFA) for 15 minutes at room temperature and washed with 1×PBS for three times. Cells were permeabilized with 0.3% Triton X-100 in 1×PBS for 15 minutes. Then cells were incubated in blocking solution (0.3% Triton X-100 plus 2% donkey serum in 1×PBS) for 1 hour. Primary antibodies were added into blocking solution and incubated at 4° C. overnight. The next day, cells were washed with 1×PBS for three times. Secondary antibodies conjugated to Alexa Fluor 488, Cy3, or Alexa Fluor 647 (Jackson Immunoresearch) were incubated for 1 hour. Images were taken using Leica DMI6000 B (Leica Microsystems) or DMi8 (Leica Microsystems) and a Zeiss LSM700 confocal laser scanning microscope. Bright field images were acquired using a Nikon Labophot 2 microscope equipped with a Nikon Digital Sight DS-Ri1 charge-coupled device camera. The thickness and areas composed of KRT13^+ cells were calculated by ImageJ (National Institutes of Health). For X-gal staining, tissues were fixed in 4% paraformaldehyde for 30 minutes and incubated in X-gal solution overnight at 37° C. as previously described (Que et al., 2006).
as §1

In the next test the test system is hPSC-derived EPCs. In words: Squamous differentiation of purified hPSC-derived EPCs (KRT13, INV, KRT14 levels). How it is done:
To perform cell surface marker staining, cells were disassociated with 0.05% Trypsin-EDTA (ThermoFisher Scientific) and stained with fluorophore conjugated antibodies in FACS buffer (1×PBS, 2% FBS, 0.2 mM EDTA) for 30 min with live/dead staining dye (LIVE/DEAD™ Fixable Violet Dead Cell Stain Kit, ThermoFisher Scientific) to exclude dead cells. Intracellular staining cells were performed according to the manufacturer's instructions in eBioscience™ Foxp3/Transcription Factor Staining Buffer Set (ThermoFisher Scientific). Fixation and permeabilization was performed at room temperature for 1 hour followed by incubation of primary antibody for 1 hour. Cells were washed with 1×PBS and fluorophore-conjugated secondary antibodies were incubated for 1 hour. Stained cells were analyzed BD FACSCanto (BD Biosciences) data were analyzed with FlowJo software (Ashland, Oregon). Sorted EPCAM^+ ITGß4^+ cells were maintained in the medium containing 5% FBS, 20 ng/ml EGF, 20 ng/ml FGF2 and 10 μM Rock inhibitor Y27632.
as §1
The inventors have previously shown that BMP signaling activation promotes terminal differentiation of esophageal progenitors in the developing and adult esophagus (Jiang et al., 2015; Rodriguez et al., 2010). It was asked whether purified hPSCs-derived EPCs (ESC and iPSC-derived) respond to BMP activation in a similar manner.
as §2

The mark [2] stands for this setting: 10 μM, iPSC-derived EPCs, vs vehicle, FIG. 6D.
The mark [3] stands for this setting: WNT activation in the presence of Noggin and SB431542, FIG. 1F.
[4] abbreviates: BMP4 treatment vs vehicle, ESC and iPSC-derived EPCs, FIGS. 6A-B.

For `C[C@H](NC(=O)Cc1cc(F)cc(F)c1)C(=O)N[C@H](C(=O)OC(C)(C)C)c1ccccc1` [DAPT], in the test with NOTCH signaling, the “HESS expression (downstream target of NOTCH signaling)” value is given as “downregulation”, the “HEY1 expression (downstream target of NOTCH signaling)” value is “downregulation” and the “HEY2 expression (downstream target of NOTCH signaling)” value was “downregulation”. For the same molecule, the “initial EPC commitment from the AFE” value in test [1] (DAPT applied during PSC differentiation from AFE to EPC, FIG. 6C) is “did not affect”. Further, in the test with hPSC-derived EPCs (setting [2]), the “expression of INV at the transcription and protein levels” value is listed as “reduced expression”; the “expression of KRT13 at the transcription and protein levels” value was “reduced expression”.

With `Cc1c[nH]c(-c2cnc(NCCNc3ccc(C#N)cn3)nc2-c2ccc(Cl)cc2Cl)n1` [GSK inhibitor], in test [1] (setting [3]), the “levels of the general foregut marker SOX2” value is “remained unchanged”, the “levels of the posterior foregut marker HNF6” value is “increased”, the “levels of the posterior foregut marker PROX1” value is reported as “increased” and the p63 expression result is “reduced p63 expression in a dose-dependent manner”.

`Cc1ccc2nc(NC(=O)CSc3nc4c(c(=O)n3-c3ccccc3)SCC4)sc2c1` [IWP2]: the esophageal specification result in test [1] (Noggin plus SB431542 in combination with 0.5, 1 or 2 μM IWP2, day 6 to day 16, gene expression at day 16, FIG. 1I) is reported as “does not affect”. Moreover, in test [1] (added to culture treated with Noggin and SB431542 at day 6-16, FIG. 1I), the p63 expression result is “did not further promote”.

B1: Noggin: BMP inhibitor (R&D Systems) (protein, UniProt Q13253 28-232, looked up)
Noggin: QHYLHIRPAPSDNLPLVDLIEHPDPIFDPKEKDLNETLLRSLLGGHYDPGFMATSPPEDRPGGGGGAAGGAEDLAELDQLLRQRPSGAMPSEIKGLEFSEGLAQGKKQRLSKKLRRKLQMWLWSQTFCPVLYAWNDLGSRFWPRYVKVGSCFSKRSCSVPEGMVCKPSKSVHLTVLRWRCQRRGGQRCGWIPIQYPIISECKCSC
For B1, the “AFE differentiation into p63+ NKX2.1- EPCs” value in test [1] (Noggin treatment alone at day 6-16, FIG. 1E) is on record as “insufficient”.

B2: BMP4: BMP signaling activator, growth factor (R&D Systems) (protein, UniProt P12644 293-408, looked up)
Bone morphogenetic protein 4: SPKHHSQRARKKNKNCRRHSLYVDFSDVGWNDWIVAPPGYQAFYCHGDCPFPLADHLNSTNHAIVQTLVNSVNSSIPKACCVPTELSAISMLYLDEYDKVVLKNYQEMVVEGCGCR
As for B2, the “differentiation of hPSC-derived EPCs” value with hPSC-derived EPCs (BMP4 treatment) is “promotes”. Further, in the test with hPSC-derived EPCs (setting [4]), the “levels of Involucrin (INV)” value is recorded as “significantly increase” and the “levels of KRT13” value is on record as “significantly increase”. In the test on hPSC-derived EPCs (BMP4 treatment, FIG. 6B), the “levels of KRT14” value is “increased”.

B3: DKK1: WNT inhibitor (protein, UniProt O94907 32-266, looked up)
Dickkopf-related protein 1: TLNSVLNSNAIKNLPPPLGGAAGHPGSAVSAAPGILYPGGNKYQTIDNYQPYPCAEDEECGTDEYCASPTRGGDAGVQICLACRKRRKRCMRHAMCCPGNYCKNGICVSSDQNHFRGEIEETITESFGNDHSTLDGYSRRTTLSSKMYHTKGQEGSVCLRSSDCASGLCCARHFWSKICKPVLKEGQVCTKHRRKGSHGLEIFQRCYCGEGLSCRIQKDHHQASNSSRLHTCQRH
With B3, the p63 expression result in test [1] (WNT inhibitor alone, hPSCs, FIG. 1E) is listed as “insufficient”.
